# Measured values: patent US10774071B2, “PD-1/PD-L1 inhibitors” (Gilead Sciences, Inc., priority 2018, dated 2020)
# Where two headings read alike, the source gives them in different places.
# What was measured:
# [1] = biological target: PD-L1 (Homo sapiens (Human), UniProt Q9NZQ7); assay: PD-L1/PD-L1 dimerization biochemical protein-protein interaction assay (ALPHA); assay type: binding; conditions: read-out: AC50 PDL1 Dimer 1 nM
# [2] = biological target: PD-1/PD-L1 (Homo sapiens (Human), UniProt Q9NZQ7); assay: PD-1/PD-L1 biochemical protein-protein interaction assay (ALPHA); assay type: binding; conditions: read-out: IC50 PD-L1-PD1
# PD-1/PD-L1, sequence (Q9NZQ7 19-238): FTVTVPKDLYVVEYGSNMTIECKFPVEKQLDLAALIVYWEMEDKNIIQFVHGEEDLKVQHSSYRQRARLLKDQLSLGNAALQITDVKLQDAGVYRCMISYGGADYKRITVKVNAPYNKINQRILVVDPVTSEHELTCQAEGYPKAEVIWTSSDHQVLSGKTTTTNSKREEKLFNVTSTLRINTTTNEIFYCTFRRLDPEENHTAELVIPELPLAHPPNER
# [3] = 0.5 nM His tagged PD-L1 and 0.5 nM FLAG tagged PD-L1, Table 4A
# [4] = 0.3 nM His tagged PD-L1, 2.5 nM biotinylated Fc-PD-1, readings of 0.064 nM are equal to or less than 0.064 nM
# [5] = 0.5 nM His tagged PD-L1 and 0.5 nM FLAG tagged PD-L1, Table 4B
# [6] = 0.3 nM His tagged PD-L1, 2.5 nM biotinylated Fc-PD-1, Table 3B
# PD-L1, sequence (Q9NZQ7 19-238): as above
# PD-L1, sequence (Q9NZQ7 19-238): as above
SMILES,"AC50 [1, 3] [nM]","IC50 [2, 4] [nM]","AC50 [1, 5] [nM]","IC50 [2, 6] [nM]"
COc1nc(-c2cccc(-c3cccc4c3CC[C@@H]4Nc3nc(OC)c(CNCC(=O)O)nc3C(F)(F)F)c2Cl)ccc1CNC[C@@H]1CC(O)C(=O)N1 (some centres unmarked) [A-46],7.18,≤ 0.064,–,–
COc1cc(N[C@H]2CCc3c(-c4cccc(-c5ccc(CNC[C@@H]6CCC(=O)N6)c(OC)n5)c4Cl)cccc32)c(Cl)cc1CN1CC[C@@H](C(=O)O)C1 [A-16],42.1,≤ 0.064,–,–
COc1nc(O[C@H]2CCc3c(-c4cccc(-c5cnc([C@H](C)NC[C@@H]6CCC(=O)N6)c(OC)n5)c4Cl)cccc32)c(Cl)cc1CN1CC[C@@H](C(=O)O)C1 [B-91],–,–,33.8,0.064
COc1nc(-c2cccc(-c3cccc4c3CC[C@@H]4Nc3nc(OC)c(CN4CC5CC(C(=O)O)C4C5)nc3C(F)(F)F)c2Cl)ccc1CNC[C@@H]1CCC(=O)N1 (some centres unmarked) [A-81],23.1,≤ 0.064,–,–
COc1cc(-c2cccc(-c3cccc4c3CC[C@@H]4Nc3nc(OC)c(CN4CC5(C(=O)O)CCC4CC5)nc3C(F)(F)F)c2Cl)cc(F)c1CNC[C@@H]1CCC(=O)N1 [A-33],11.7,≤ 0.064,–,–
COc1nc(-c2cccc(-c3cccc4c3CC[C@@H]4Nc3nc(OC)c(CN4CCC5CC4(C(=O)O)C5)cc3C(F)(F)F)c2Cl)ccc1CN1CC(C)(O)C1 [A-56],11.8,≤ 0.064,–,–
COc1nc(-c2cccc(-c3cccc4c3CC[C@@H]4Oc3nc(OC4CC4)c(CN4CC[C@@H](C(=O)O)C4)cc3Cl)c2Cl)ccc1CNC[C@@H]1CCC(=O)N1 [B-200],–,–,20.1,0.064
COc1cc(-c2cccc(-c3cccc4c3CC[C@@H]4Oc3nc(OC)c(CN(C)CC(=O)O)cc3C(F)(F)F)c2Cl)cc(F)c1CNC[C@@H]1CCC(=O)N1 [B-187],–,–,2.86,0.064
CNC(=O)C1CCN(Cc2ccc(-c3cccc(-c4cccc5c4CC[C@@H]5Oc4nc(OC)c(CN5CCC(C(=O)NC)C5)cc4Cl)c3Cl)nc2OC)C1 (some centres unmarked) [B-87],–,–,90.7,0.064
COc1nc(-c2cccc(-c3cccc4c3CC[C@@H]4Nc3nc(OC)c(CN4CCC[C@]4(C)C(=O)O)cc3C(F)(F)F)c2Cl)ccc1CNC[C@@H]1CCC(=O)N1 [A-38],16.9,≤ 0.064,–,–
COc1nc(-c2cccc(-c3cccc4c3CC[C@@H]4Oc3nc(OC)c(CN4CC5(C(=O)O)CCC4CC5)cc3C(F)(F)F)c2Cl)ccc1CN[C@H]1C[C@](C)(O)C1 [B-4],–,–,20.9,0.064
COc1nc(-c2cccc(-c3cccc4c3CC[C@@H]4Nc3nc(OC)c(CNCC(=O)O)nc3C(F)(F)F)c2Cl)ccc1CN1CC(C)(O)C1 [A-75],18.1,≤ 0.064,–,–
COc1nc(-c2cccc(-c3cccc4c3CC[C@@H]4Oc3nc(OC)c(CNC4(C(=O)O)CC4)cc3C(F)(F)F)c2Cl)ccc1CNC[C@H]1C[C@](C)(O)C1 [B-207],–,–,11.9,0.064
COC[C@H](NCc1cc(C(F)(F)F)c(N[C@H]2CCc3c(-c4cccc(-c5ccc(CN[C@H]6C[C@](C)(O)C6)c(OC)n5)c4Cl)cccc32)nc1OC)C(=O)O [A-91],42.7,≤ 0.064,–,–
COc1nc(-c2cccc(-c3cccc4c3CC[C@@H]4Oc3nc(OC)c(CN4CC5(C(=O)O)CCC4CC5)cc3Cl)c2Cl)ccc1CN1CC[C@@H](O)C1 [B-51],–,–,27.5,0.064
COc1nc(-c2cccc(-c3cccc4c3CC[C@@H]4Nc3nc(OC)c(CNCCC(=O)O)cc3C(F)(F)F)c2Cl)ccc1CN[C@H]1C[C@](C)(O)C1 [A-89],81.8,0.072,–,–
COc1nc(O[C@H]2CCc3c(-c4cccc(-c5cnc(CNC[C@@H]6CCC(=O)N6)c(OC)n5)c4C)cccc32)c(Cl)cc1CN1CC[C@@H](C(=O)O)C1 [B-81],–,–,118,0.064
COc1nc(-c2cccc(-c3cccc4c3CC[C@@H]4Oc3nc(OC)c(CN4CC[C@@H](C(=O)N=S(C)(=O)NCC(F)(F)F)C4)cc3Cl)c2Cl)ccc1CNC[C@@H]1CCC(=O)N1 (some centres unmarked) [B-161],–,–,41.2,0.073
COc1nc(-c2cccc(-c3cccc4c3CC[C@@H]4Nc3nc(OC)c(CN4C[C@H](C)C[C@H]4C(=O)O)nc3C(F)(F)F)c2Cl)ccc1CNC[C@@H]1CCC(=O)N1 [A-76],30.2,≤ 0.064,–,–
COc1nc(N[C@H]2CCc3c(-c4cccc(-c5ccc(CNC[C@@H]6CCC(=O)N6)c(OCC#N)n5)c4Cl)cccc32)c(C(F)(F)F)cc1CN1CCC[C@@]1(C)C(=O)O [A-27],7.77,≤ 0.064,–,–
COc1nc(-c2cccc(-c3cccc4c3CC[C@@H]4Nc3nc(OC)c(CN4C[C@H](C)C[C@H]4C(=O)O)cc3C(F)(F)F)c2Cl)ccc1CNC[C@@H]1CCC(=O)N1 [A-78],13.5,≤ 0.064,–,–
COc1nc(-c2cccc(-c3cccc4c3CC[C@@H]4Oc3nc(OC)c(CNC[C@@H]4CCC(=O)N4)nc3Cl)c2Cl)ccc1CNC[C@@H]1CCC(=O)N1 [B-155],–,–,102,0.22

# The next lines start with the values.
"AC50 [1, 3] [nM]","IC50 [2, 4] [nM]","AC50 [1, 5] [nM]","IC50 [2, 6] [nM]",SMILES
–,–,36.2,0.064,COc1nc(-c2cccc(-c3cccc4c3CC[C@@H]4Oc3nc(OC)c(CN4C[C@@H]5C[C@]5(C(=O)O)C4)cc3Cl)c2Cl)ccc1CNC[C@@H]1CCC(=O)N1 [B-95]
–,–,21.3,0.064,COc1nc(-c2cccc(-c3cccc4c3CC[C@@H]4Oc3nc(OC)c(CNCC(=O)O)cc3C)c2Cl)ccc1CNC[C@@H]1CCC(=O)N1 [B-239]
–,–,71.4,0.066,COc1nc(-c2cccc(-c3cccc4c3CC[C@@H]4Oc3nc(OC)c(CN4CC5CCC(C(=O)O)(C5)C4)cc3Cl)c2Cl)ccc1CNC[C@@H]1CCC(=O)N1 (some centres unmarked) [B-11]
–,–,54.3,0.111,COc1nc(-c2cccc(-c3cccc4c3CC[C@@H]4Oc3nc(OC)c(CN4CC5CCC4C(C(=O)O)C5)cc3Cl)c2Cl)ccc1CNC[C@@H]1CCC(=O)N1 (some centres unmarked) [B-98]
–,–,4.76,0.064,COc1nc(-c2cccc(-c3cccc4c3CC[C@@H]4Oc3nc(OC)c(CN[C@H](C(=O)O)C(C)C)cc3C(F)(F)F)c2Cl)ccc1CNC[C@@H]1CCC(=O)N1 [B-270]
–,–,94.1,0.064,COc1nc(-c2cccc(-c3cccc4c3CC[C@@H]4Oc3nc(OC)c(CN4CC(C(=O)O)C4)cc3Cl)c2C#N)ccc1CNC[C@@H]1CCC(=O)N1 [B-74]
–,–,17.8,0.064,COc1nc(-c2cccc(-c3cccc4c3CC[C@@H]4Oc3nc(OC)c(CN4CCC(C)(C)C(C(=O)O)C4)cc3Cl)c2Cl)ccc1CNC[C@@H]1CCC(=O)N1 (some centres unmarked) [B-25]
–,–,7.82,0.064,COc1nc(-c2cccc(-c3cccc4c3CC[C@@H]4Oc3nc(OC)c(CN4CC(C(=O)O)C4)cc3C(F)(F)F)c2Cl)ccc1CNC[C@@H]1CCC(=O)N1 [B-63]
–,–,17.9,0.064,COc1nc(-c2cccc(-c3cccc4c3CC[C@@H]4Oc3nc(OC)c(CN4CCCC(C(=O)O)CC4)cc3Cl)c2Cl)ccc1CNC[C@@H]1CCC(=O)N1 (some centres unmarked) [B-177]
–,–,9.94,0.064,COc1nc(-c2cccc(-c3cccc4c3CC[C@@H]4Oc3nc(OC)c(CN(C)CC(=O)O)cc3Cl)c2Cl)ccc1CNC[C@@H]1CCC(=O)N1 [B-173]
–,–,9.7,0.064,COc1nc(-c2cccc(-c3cccc4c3CC[C@@H]4Oc3nc(OC)c(CNC4(C(=O)O)CC4)cc3C(F)(F)F)c2Cl)ccc1CNC[C@@H]1CC(O)C(=O)N1 (some centres unmarked) [B-204]
–,–,5.94,0.064,COc1nc(-c2cccc(-c3cccc4c3CC[C@@H]4Oc3nc(OC)c(CNC(C)(C)C(=O)O)cc3C)c2Cl)ccc1CNC[C@@H]1CCC(=O)N1 [B-245]
–,–,103,0.068,COC(=O)[C@H]1[C@@H]2CN(Cc3cc(Cl)c(O[C@H]4CCc5c(-c6cccc(-c7ccc(CNC[C@@H]8CCC(=O)N8)c(OC)n7)c6Cl)cccc54)nc3OC)C[C@@H]21 [B-94]
–,–,10.9,0.064,COc1nc(-c2cccc(-c3cccc4c3CC[C@@H]4Oc3nc(OC)c(CN4C[C@H](C)C[C@H]4C(=O)O)cc3Cl)c2Cl)ccc1CNC[C@@H]1CCC(=O)N1 [B-185]
–,–,2.56,0.064,COc1cc(O[C@H]2CCc3c(-c4cccc(-c5ccc(CNC[C@@H]6CCC(=O)N6)c(OC)n5)c4Cl)cccc32)c(C(F)(F)F)cc1CNC(C)(C)C(=O)O [B-219]
–,–,13.5,0.064,COc1cc(O[C@H]2CCc3c(-c4cccc(-c5ccc(CNC[C@@H]6CCC(=O)N6)c(OC)n5)c4Cl)cccc32)c(C(F)(F)F)cc1CNC[C@@H](O)CC(=O)O [B-222]
–,–,12.1,0.064,COc1nc(-c2cccc(-c3cccc4c3CC[C@@H]4Oc3nc(OC)c(CNC(C)(CO)C(=O)O)cc3C)c2Cl)ccc1CNC[C@@H]1CCC(=O)N1 (some centres unmarked) [B-240]
–,–,2.2,0.064,COc1nc(-c2cccc(-c3cccc4c3CC[C@@H]4Oc3nc(OC)c(CNC[C@H]4C[C@H](O)C4)cc3C(F)(F)F)c2Cl)ccc1CNC[C@@H]1CCC(=O)N1 [B-262]
